Reference: ChEMBL document CHEMBL1135425, “Antitumor agents. 213. Modeling of epipodophyllotoxin derivatives using variable selection k nearest neighbor QSAR method” (J Med Chem, 2002)
Several values for one entry are separate records, joined by “and”; a condition that tells them apart may be missing. Identical values can stand only once.

molecular target: DNA topoisomerase II (Homo sapiens) (UniProt P11388+Q02880); assay: Percentage of intracellular covalent DNA-topoisomerase II complexes formed; format: cell-based

Row | SMILES | Complex formation
1 | COc1cc([C@@H]2c3cc4c(cc3[C@@H](Nc3ccccn3)[C@H]3COC(=O)[C@H]23)OCO4)cc(OC)c1O | 97%
2 | COc1cc([C@@H]2c3cc4c(cc3[C@@H](NCc3ccccc3)[C@H]3COC(=O)[C@H]23)OCO4)cc(OC)c1O | 181%
3 | COc1cc([C@@H]2c3cc4c(cc3[C@@H](Nc3cc(OC)c(OC)c(OC)c3)[C@H]3COC(=O)[C@H]23)OCO4)cc(OC)c1O | 47%
4 | COc1cc([C@@H]2c3cc4c(cc3[C@@H](NC(=O)c3cccc(C#N)c3)[C@H]3COC(=O)[C@H]23)OCO4)cc(OC)c1O | 149%
5 | COc1cccc(N[C@@H]2c3cc4c(cc3[C@@H](c3cc(OC)c(O)c(OC)c3)[C@H]3C(=O)OC[C@@H]32)OCO4)c1 | 104%
6 | COc1cc([C@@H]2c3cc4c(cc3[C@@H](Nc3cccc(Cl)c3)[C@H]3COC(=O)[C@H]23)OCO4)cc(OC)c1O | 51%
7 | COc1cc([C@@H]2c3cc4c(cc3[C@@H](NC(=O)c3ccc(F)cc3)[C@H]3COC(=O)[C@H]23)OCO4)cc(OC)c1O | 117%
8 | COc1cc([C@@H]2c3cc4c(cc3[C@@H](O[C@@H]3O[C@@H]5CO[C@@H](C)O[C@H]5[C@H](O)[C@H]3O)[C@H]3COC(=O)[C@H]23)OCO4)c(Cl)c(OC)c1O | 6.1%
9 | COc1cc([C@@H]2c3cc(O)c(O)cc3[C@@H](Nc3ccc([N+](=O)[O-])cc3)[C@H]3COC(=O)[C@H]23)cc(OC)c1O | 99%
10 | COc1cc([C@@H]2c3cc4c(cc3[C@@H](Nc3ccc(Cl)cc3)[C@H]3COC(=O)[C@H]23)OCO4)cc(OC)c1O | 99%
11 | COc1cc([N+](=O)[O-])ccc1N[C@@H]1c2cc3c(cc2[C@@H](c2cc(OC)c(O)c(OC)c2)[C@H]2C(=O)OC[C@@H]21)OCO3 | 83%
12 | COc1cc([C@@H]2c3cc4c(cc3[C@@H](NCc3ccccc3N)[C@H]3COC(=O)[C@H]23)OCO4)cc(OC)c1O | 184%
13 | COc1cc([C@@H]2c3cc4c(cc3[C@@H](NC(=O)c3ccc(C#N)cc3)[C@H]3COC(=O)[C@H]23)OCO4)cc(OC)c1O | 159%
14 | COc1cc([C@@H]2c3cc4c(cc3[C@@H](Nc3cccc(Br)c3)[C@H]3COC(=O)[C@H]23)OCO4)cc(OC)c1O | 62%
15 | COC1=CC([C@@H]2c3cc4c(cc3C(NC(=O)N(C)N=O)[C@H]3COC(=O)[C@H]23)OCO4)=CC(=O)C1=O (stereo not given in full) | 41%
16 | COc1cc([C@@H]2c3cc4c(cc3[C@@H](NCCN(C)C)[C@H]3COC(=O)[C@H]23)OCO4)cc(OC)c1O | 183% and 203%

Row | SMILES | Complex formation
17 | COc1cc([C@@H]2c3cc4c(cc3[C@@H](O)[C@H]3COC(=O)[C@H]23)OCO4)c(Cl)c(OC)c1O | 15.6%
18 | COc1ccc(N[C@@H]2c3cc4c(cc3[C@@H](c3cc(OC)c(O)c(OC)c3)[C@H]3C(=O)OC[C@@H]32)OCO4)c([N+](=O)[O-])c1 | 15%
19 | COc1cc([C@@H]2c3cc4c(cc3[C@@H](NCc3ccc([N+](=O)[O-])cc3)[C@H]3COC(=O)[C@H]23)OCO4)cc(OC)c1O | 216%
20 | COc1cc([C@@H]2c3cc4c(cc3[C@@H](NC(=O)c3ccc(C(C)=O)cc3)[C@H]3COC(=O)[C@H]23)OCO4)cc(OC)c1O | 124%
21 | COc1cc([C@@H]2c3cc4c(cc3[C@@H](NCCCO)[C@H]3COC(=O)[C@H]23)OCO4)cc(OC)c1O | 89.2%
22 | COc1cc([C@@H]2c3cc4c(cc3[C@@H](Nc3cc([N+](=O)[O-])cc([N+](=O)[O-])c3)[C@H]3COC(=O)[C@H]23)OCO4)cc(OC)c1O | 20%
23 | COc1cc([C@@H]2c3cc4c(cc3[C@@H](NC(=O)c3ccc(OC(C)=O)cc3)[C@H]3COC(=O)[C@H]23)OCO4)cc(OC)c1O | 137%
24 | COc1cc2c(cc1OC)[C@@H](c1cc(OC)c(O)c(OC)c1)[C@H]1C(=O)OC[C@@H]1C2Nc1ccc(F)cc1 (stereo not given in full) | 108%
25 | COc1cc([C@@H]2c3cc4c(cc3[C@@H](NCc3cccc(F)c3)[C@H]3COC(=O)[C@H]23)OCO4)cc(OC)c1O | 216%
26 | COc1cc([C@@H]2c3cc4c(cc3[C@@H](Nc3ccc([N+](=O)[O-])cc3)[C@H]3COC(=O)[C@H]23)OCO4)cc(OC)c1O | 323%
27 | COC(=O)c1cccc(NC2c3cc4c(cc3[C@@H](c3cc(O)c(O)c(OC)c3)[C@H]3C(=O)OC[C@H]23)OCO4)c1 (stereo not given in full) | 94%
28 | COc1cc([C@@H]2c3cc4c(cc3[C@@H](Nc3ccc(NC(=O)C56CCC(C)(C(=O)O5)C6(C)C)cc3)[C@H]3COC(=O)[C@H]23)OCO4)cc(OC)c1O (stereo not given in full) | 88%
29 | COc1cc([C@@H]2c3cc4c(cc3[C@@H](NC(=O)c3cccc([N+](=O)[O-])c3)[C@H]3COC(=O)[C@H]23)OCO4)cc(OC)c1O | 86%
30 | COc1cc([C@@H]2c3cc4c(cc3C(Nc3ccc5c(c3)OCCO5)[C@H]3COC(=O)[C@H]23)OCO4)cc(O)c1O (stereo not given in full) | 119%
31 | COc1cc([C@@H]2c3cc4c(cc3[C@@H](NCCN3CCCCC3)[C@H]3COC(=O)[C@H]23)OCO4)cc(OC)c1O | 190% and 183%

More lines, now with the values ahead:

Row | Complex formation | SMILES
32 | 100% | COc1cc([C@@H]2c3cc4c(cc3[C@@H](Nc3ccc(NC(=O)c5cc([N+](=O)[O-])cn5C)cc3)[C@H]3COC(=O)[C@H]23)OCO4)cc(OC)c1O
33 | 57% | COc1cc([C@@H]2c3cc4c(cc3[C@@H](Oc3ccc(F)cc3)[C@H]3COC(=O)[C@H]23)OCO4)cc(OC)c1O
34 | 83% | COc1cc([C@@H]2c3cc4c(cc3C(Nc3ccc(O)cc3)[C@H]3COC(=O)[C@H]23)OCO4)cc(O)c1O (stereo not given in full)
35 | 83% | CCOC(=O)CC[C@H](NC(=O)c1ccc(N[C@@H]2c3cc4c(cc3[C@@H](c3cc(OC)c(O)c(OC)c3)[C@H]3C(=O)OC[C@@H]32)OCO4)cc1)C(=O)OCC
36 | 290% | COc1cc([C@@H]2c3cc4c(cc3[C@@H](Nc3cccc(O)c3)[C@H]3COC(=O)[C@H]23)OCO4)cc(OC)c1O
37 | 279% | COc1cc([C@@H]2c3cc4c(cc3[C@@H](Nc3ccc5c(c3)OCCO5)[C@H]3COC(=O)[C@H]23)OCO4)cc(OC)c1O
38 | 144% | COc1cc([C@@H]2c3cc4c(cc3[C@@H](NCc3ccccc3[N+](=O)[O-])[C@H]3COC(=O)[C@H]23)OCO4)cc(OC)c1O
39 | 83% | COC(=O)c1cc(N[C@@H]2c3cc4c(cc3[C@@H](c3cc(OC)c(O)c(OC)c3)[C@H]3C(=O)OC[C@@H]32)OCO4)ccc1O
40 | 179% | COc1cc([C@@H]2c3cc4c(cc3[C@@H](Nc3ccc(Br)cc3)[C@H]3COC(=O)[C@H]23)OCO4)cc(OC)c1O
41 | 4% | CCOC(=O)c1ccccc1N[C@@H]1c2cc3c(cc2[C@@H](c2cc(OC)c(O)c(OC)c2)[C@H]2C(=O)OC[C@@H]21)OCO3
42 | 9% | CCOC(=O)c1ccc(NC2c3cc(OC)c(OC)cc3[C@@H](c3cc(OC)c(OC)c(OC)c3)[C@H]3C(=O)OC[C@H]23)cc1 (stereo not given in full)
43 | 167% | COc1cc([C@@H]2c3cc4c(cc3[C@@H](NC[C@H](C)O)[C@H]3COC(=O)[C@H]23)OCO4)cc(OC)c1O
44 | 9% | COc1cc([C@@H]2c3cc(O)c(O)cc3[C@@H](Nc3ccccc3)[C@H]3COC(=O)[C@H]23)cc(OC)c1OC
45 | 99% | COc1cc([C@@H]2c3cc4c(cc3[C@@H](NCc3ccc(C(F)(F)F)cc3)[C@H]3COC(=O)[C@H]23)OCO4)cc(OC)c1O
46 | 6.9% | COc1cc([C@@H]2c3cc4c(cc3[C@@H](Nc3ccc(C(=O)O)cc3)[C@H]3COC(=O)[C@H]23)OCO4)cc(OC)c1O
47 | 100% | COc1cc([C@@H]2c3cc4c(cc3[C@@H](OC(=O)c3cccc(N)c3)[C@H]3COC(=O)[C@H]23)OCO4)cc(OC)c1O
48 | 94% | COc1cc([C@@H]2c3cc4c(cc3[C@@H](OC(=O)c3ccccc3)[C@H]3COC(=O)[C@H]23)OCO4)cc(OC)c1O

Row | Complex formation | SMILES
49 | 73% | CCC(C)N[C@@H]1c2cc3c(cc2[C@@H](c2cc(OC)c(O)c(OC)c2)[C@H]2C(=O)OC[C@@H]21)OCO3 (stereo not given in full)
50 | 164% | COc1cc([C@@H]2c3cc4c(cc3[C@@H](Nc3ccc5c(c3)OCO5)[C@H]3COC(=O)[C@H]23)OCO4)cc(OC)c1O
51 | 10% | COc1cc([C@@H]2c3cc4c(cc3[C@@H](Sc3ccc(O)cc3)[C@H]3COC(=O)[C@H]23)OCO4)cc(OC)c1O
52 | 138% | CCOC(=O)c1ccc(NC2c3cc(O)c(O)cc3[C@@H](c3cc(OC)c(O)c(OC)c3)[C@H]3C(=O)OC[C@H]23)cc1 (stereo not given in full)
53 | 125% | COc1cc2c(cc1OC)[C@@H](c1cc(OC)c(O)c(OC)c1)[C@H]1C(=O)OC[C@@H]1C2Nc1ccc(C#N)cc1 (stereo not given in full)
54 | 69% | COc1ccc(NC2c3cc4c(cc3[C@@H](c3cc(O)c(O)c(OC)c3)[C@H]3C(=O)OC[C@H]23)OCO4)cc1OC (stereo not given in full)
55 | 191% | COc1cc([C@@H]2c3cc4c(cc3[C@@H](NCc3cccc(N)c3)[C@H]3COC(=O)[C@H]23)OCO4)cc(OC)c1O
56 | 207% | CCOC(=O)c1ccc(N[C@@H]2c3cc4c(cc3[C@@H](c3cc(OC)c(O)c(OC)c3)[C@H]3C(=O)OC[C@@H]32)OCO4)cc1
57 | 109% | COc1cc([C@@H]2c3cc4c(cc3C(Nc3ccc(CC#N)cc3)[C@H]3COC(=O)[C@H]23)OCO4)cc(O)c1O (stereo not given in full)
58 | 211% | COc1cc([C@@H]2c3cc4c(cc3[C@@H](Nc3ccc(O)cc3)[C@H]3COC(=O)[C@H]23)OCO4)cc(OC)c1O
59 | 148% | COc1cc([C@@H]2c3cc4c(cc3[C@@H](NC(=O)Nc3ccccc3)[C@H]3COC(=O)[C@H]23)OCO4)cc(OC)c1O
60 | 149% | COc1cc([C@@H]2c3cc4c(cc3[C@@H](NC(=O)c3cccc(N)c3)[C@H]3COC(=O)[C@H]23)OCO4)cc(OC)c1O
61 | 118% | COc1cc([C@@H]2c3cc4c(cc3[C@@H](NC(=O)Nc3ccc(F)cc3)[C@H]3COC(=O)[C@H]23)OCO4)cc(OC)c1O
62 | 123% | COc1cc([C@@H]2c3cc4c(cc3[C@@H](Nc3cnc5ccccc5c3)[C@H]3COC(=O)[C@H]23)OCO4)cc(OC)c1O
63 | 211% | COc1cc([C@@H]2c3cc4c(cc3[C@@H](Nc3ccc(C#N)cc3)[C@H]3COC(=O)[C@H]23)OCO4)cc(OC)c1O
64 | 50% | COC(=O)c1cc(N[C@@H]2c3cc4c(cc3[C@@H](c3cc(OC)c(O)c(OC)c3)[C@H]3C(=O)OC[C@@H]32)OCO4)cc(C(=O)OC)c1
65 | 148% | COc1cc([C@@H]2c3cc4c(cc3[C@@H](Nc3cccnc3)[C@H]3COC(=O)[C@H]23)OCO4)cc(OC)c1O
